Reference: patent US9593149B2, “Amylin and calcitonin receptor agonist” (Novo Nordisk A/S, priority 2014, dated 2017)
Peptide text beside a SMILES is read from it. * marks the point of attachment. C18 diacid = O=C(O)CCCCCCCCCCCCCCCCC(=O)*

Assay: Assay (XVII) T½ and subcutaneous bioavailability in Beagle dogs
Format: in vivo
Method: The area under the plasma concentration versus time curve (AUC, [time×concentration]) was calculated (by the Pharsight programme) after both subcutaneous administration and intravenous administration, typically until 240-288 hours post dosing, or until last measured concentration. The AUC was calculated by extrapolating to infinity and dose normalized. The absolute bioavailability (F %) was then calculated based on the dose-corrected AUC values, namely as AUC/Dsc divided by AUC/Div×100, where Dsc is the subcutaneous dose per kg, and Div the dose per kg given intravenously. Assay (XVII)—Determination of T½ and Subcutaneous Bioavailability in Beagle Dogs […]
By protraction is meant the prolongation of the time in the body and thereby the time of action of the mimylin derivatives. This was done in PK studies, where the terminal half-life of the derivative in question was determined following i.v. administration. By terminal half-life is generally meant the period of time it takes to halve a certain plasma concentration, measured after the initial distribution phase. […]
The plasma concentration of the respective mimylin derivative was analysed using LC-MS. Individual plasma concentration-time profiles were analysed by a non-compartmental model in Phoenix WinNonlin version 6.3 (Pharsight Inc., Mountain View, Calif., USA). […]

SMILES: CC(C)C[C@H](NC(=O)[C@H](C)NC(=O)[C@H](C)NC(=O)[C@@H](NC(=O)[C@H](CO)NC(=O)[C@H](CC(C)C)NC(=O)[C@H](CCC(=O)O)NC(=O)[C@H](CO)NC(=O)[C@H](C)NC(=O)[C@H](CCC(=O)O)NC(=O)CCCCCCCCCCCCCCCCC(=O)O)[C@@H](C)O)C(=O)NCC(=O)N[C@@H](CCCNC(=N)N)C(=O)N[C@@H](CC(C)C)C(=O)N[C@@H](CO)C(=O)N[C@@H](C)C(=O)N[C@@H](CCC(=O)O)C(=O)N[C@@H](CC(C)C)C(=O)N[C@@H](Cc1cnc[nH]1)C(=O)N[C@@H](CCC(=O)O)C(=O)N[C@@H](CC(C)C)C(=O)N[C@@H](C)C(=O)N[C@H](C(=O)N[C@@H](CC(C)C)C(=O)N1CCC[C@H]1C(=O)N[C@@H](CCCNC(=N)N)C(=O)N[C@H](C(=O)N[C@@H](CCC(=O)O)C(=O)N[C@H](C(=O)NCC(=O)N1CCC[C@H]1C(=O)N[C@@H](CCC(=O)O)C(=O)N[C@@H](CO)C(=O)N1CCC[C@H]1C(N)=O)[C@@H](C)O)[C@@H](C)O)[C@@H](C)O [Ex. #2, [N-terminal(C18 diacid)]mimylin] ({C18 diacid}-EASELSTAALGRLSAELHELATLPRTETGPESP-NH2)
- Subcutaneous bioavailability (%) (Beagle dogs): 98%
- Beagle dogs iv PK, t½ (i.v., harmonic mean, n = 2): 95 h
